Read-outs that look alike come from different tables or passages of the source.
Tests used:
[1] = tested on: virus de la maladie de Talfan; assay: Virucidal activity of mixtures, drop of viral titre, Example 1; type: cell-based; conditions: 30 min, 20°C, eau dure à 30°f + matières organiques
Procedure: Pour déterminer l'activité virucide de l'association susmentionnée, on a préparé différents mélanges monoperoxyphtalate de magnésium/cumène sulfonate de sodium/acide malique et on a analysé l'efficacité de ces différents mélanges sur le virus de la maladie de Talfan, ce en appliquant les conditions expérimentales qui correspondent aux exigences en matière d'homologation d'un désinfectant à usage agricole [temps de contact 30 min. - température 20°C - conditions de saleté : eau dure à 30°f + matières organiques (albumine 1 % + extrait de levure 1 %)].

[2] = tested on: Enterococcus hirae (CIP 58 55); conditions: temps de contact 5 min, 20°C
Procedure: (§1) Conformément à l'invention, on a vérifié l'activité bactéricide du monoperoxyphtalate de magnésium vis-à-vis de souches bactériennes fréquentes dans les élevages, à savoir les souches suivantes : Pseudomonas aeruginosa, Escherichia coli, Staphylococcus aureus et Enteroccocus hirae, ce en appliquant les conditions expérimentales qui répondent aux exigences d'homologation d'un désinfectant à usage agricole qui sont définies par la norme NF-T 72-301 (temps de contact 5 min. température 20°C, conditions de saleté : eau dure à 30°f, matière organique = albumine 1 % + extraits de levures 1 %).
(§2) Il est à noter que conformément aux exigences en matière d'homologation (norme NF-T 72-171) une substance est considérée comme active à une concentration d'emploi donnée lorsqu'elle permet de réduire le titre bactérien d'au moins 10^5, soit 5 Log.

[3] = tested on: Escherichia coli (CIP 53 154); conditions: temps de contact 5 min, 20°C, conditions de saleté
Procedure: as §1, §2

[4] = tested on: Pseudomonas aeruginosa (CIP A22); conditions: temps de contact 5 min, 20°C, conditions de saleté
Procedure: as §1, §2

[5] = tested on: Staphylococcus aureus (CIP 53 154); conditions: temps de contact 5 min, 20°C
Procedure: as §1, §2

[6] = tested on: Pseudomonas aeruginosa, Escherichia coli, Staphylococcus aureus et Enteroccocus hirae; assay: Bactericidal activity on all four tested strains (summary); type: cell-based; conditions: conditions requises (NF-T 72-301)
Procedure: as §1, §2

[7] = tested on: Enteroccocus hirae (CIP 58 55)
Procedure: (§3) On a analysé l'activité bactéricide des produits testés sur les deux souches bactériennes Pseudomonas aeruginosa (CIP A 22) et Enteroccocus hirae (CIP 58 55).
(§4) On a ainsi déterminé les concentrations minimales bactéricides (CMB), d'une part, de monoperoxyphtalate de magnésium (MMPP) et de mélange Ml seul et, d'autre part, de leur association, ce dans des solutions d'eau distillée, d'eau dure à 30°f et dans les conditions de saleté prévues par les normes correspondant aux exigences en matière d'homologation d'un désinfectant à usage agricole (matières organiques : albumine 1 % + extrait de levures 1 %).

[8] = tested on: Pseudomonas aeruginosa (CIP A 22)
Procedure: as §3, §4

[9] = tested on: virus de la maladie de Talfan
Source text: Selon les normes en vigueur, une substance est considérée comme virucide lorsqu'elle permet de réduire le titre viral d'au moins 10^3, c'est-à-dire de 3 Log.
Ce test a été effectué sur le virus de la maladie de Talfan (enterovirus non enveloppé, à ARN).

[10] = 20°C; cited from earlier work
rat [11] = conditions: Toxicité aiguë par voie orale; cited from earlier work
lapin = conditions: Toxicité aiguë par voie dermique; cited from earlier work
rat [12] = conditions: Toxicité aiguë par inhalation; cited from earlier work
rats de laboratoire = conditions: Toxicité moyenne; cited from earlier work
[13] = test de AMES; cited from earlier work
truite arc en ciel = conditions: cited from earlier work
[14] = conditions de saleté (eau dure à 30°f, albumine 1 % + extraits de levures 1 %)

O=C(O)CC(O)C(=O)O (stereo not drawn) [Ac. Malique, acide malique]
Chute du titre viral (exprimé en Log) ([1]; Ac. Malique 3000 ppm): 0,33 Log

CC(C)c1ccc(S(=O)(=O)[O-])cc1.[Na+] [Cumène sulfonate de sodium, cumène sulfonate de sodium]
Chute du titre viral (exprimé en Log) ([1]; Cumène sulfonate de sodium 1500 ppm): 0 Log

O=C(O)c1ccccc1C(=O)OO [monoperoxyphtalate de magnésium]
Equivalence Avox ([2]; conditions de saleté): ≥ 300 ppm
Concentration active en monoperoxyphtalate de magnésium (réduction > 10^5 Log) [2, 14]: ≥ 5 000 ppm
Equivalence Avox [3]: ≥ 150 ppm
Equivalence Avox [4]: ≥ 300 ppm
Equivalence Avox ([5]; conditions de saleté): ≥ 450 ppm
Concentration active en monoperoxyphtalate de magnésium (réduction > 10^5 Log) [5, 14]: ≥ 7 500 ppm
concentration efficace sur les souches testées [6]: 7 500 ppm
concentration efficace sur les souches testées, en oxygène libre ([6]; oxygène libre): 450 ppm
concentrations minimales bactéricides (CMB) ([7]; Eau distillée): 800 ppm
concentrations minimales bactéricides (CMB) ([7]; Eau dure 30°F): 800 ppm
concentrations minimales bactéricides (CMB) ([8]; Eau distillée): 800 ppm
concentrations minimales bactéricides (CMB) ([8]; Eau dure 30°F): 800 ppm
Chute du titre viral (exprimé en Log) ([1]; MMPP 1000 ppm): 2,6 Log
Chute du titre viral (exprimé en Log) ([1]; MMPP 1500 ppm): 3,7 Log
concentration à partir de laquelle activité virucide [9]: ≥ 1 500 ppm
soluble en milieu aqueux [10]: 80 g/L
LD50 (voie orale, rat) (rat [11]): 2300 MG/kg de poids vif
LD50 (voie dermique, lapin) (lapin): 2000 mg/kg de poids vif
LD50 (voie nasale, rat) (rat [12]): 0,84 mg/l
Effets toxiques (alimentation de rats de laboratoire pendant 90 jours) (rats de laboratoire): > 620 mg/kg de poids vif
Propriétés Mutagenes [13]: Non mutagène selon le test de AMES (norme n° ...)
LC50 (7 jours, truite arc en ciel) (truite arc en ciel): 38,5 mg :l
